# Experimental data taken from US8039482B2, “Composition of solifenacin or salt thereof for use in solid formulation” (Astellas Pharma Inc., priority 2004, dated 2011).
# Where two headings read alike, the source gives them in different places.
# How the values were obtained:
# [1] = format: physicochemical; conditions: for related substances (individual maximum values): 40° C. and 75% RH
# Description: The amounts of degradation products over time under storage were measured by high-performance liquid chromatography. The maximum amount of the individual degradation products is shown. […] Therefore, the main cause of the degradation of the active pharmaceutical ingredient over time was presumably amorphous solifenacin succinate generated in the manufacturing process of the formulation.
# Results of the stability of crystalline product and amorphous product of solifenacin succinate • Storage conditions: 40° C. and 75% RH • Packaging form: glass vial • Test items: related substances (individual maximum values)
# [2] = biological target: muscarine M3 receptors (Homo sapiens, UniProt P20309); conditions: reported in patent reference 1; cited from earlier work
# Sequence of muscarine M3 receptors (P20309 whole entry): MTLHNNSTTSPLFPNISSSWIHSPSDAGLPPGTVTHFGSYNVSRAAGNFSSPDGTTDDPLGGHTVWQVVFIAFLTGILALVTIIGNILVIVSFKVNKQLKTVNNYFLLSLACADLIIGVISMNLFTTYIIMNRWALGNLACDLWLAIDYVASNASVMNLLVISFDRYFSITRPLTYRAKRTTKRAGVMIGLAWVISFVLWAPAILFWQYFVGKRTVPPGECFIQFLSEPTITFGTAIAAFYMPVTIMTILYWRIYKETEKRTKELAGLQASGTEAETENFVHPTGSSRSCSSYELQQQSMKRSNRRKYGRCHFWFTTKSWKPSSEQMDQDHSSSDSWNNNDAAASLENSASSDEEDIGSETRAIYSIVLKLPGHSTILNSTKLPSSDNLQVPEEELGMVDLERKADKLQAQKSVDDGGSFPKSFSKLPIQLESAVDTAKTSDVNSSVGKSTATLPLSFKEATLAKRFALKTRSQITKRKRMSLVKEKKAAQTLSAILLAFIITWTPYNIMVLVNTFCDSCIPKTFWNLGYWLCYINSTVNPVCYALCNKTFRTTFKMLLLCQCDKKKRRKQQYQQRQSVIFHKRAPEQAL
"related substances (individual maximum values) ([1]; Open glass vial, one-week later) [%]","related substances (individual maximum values) ([1]; Open glass vial, two-week later) [%]","related substances (individual maximum values) ([1]; Sealed glass vial, one-week later) [%]","related substances (individual maximum values) ([1]; Sealed glass vial, two-week later) [%]",Structure (SMILES),stability under storage (in words) [1],antagonistic action against muscarine M3 receptors (in words) [2]
0.16,0.16,0.03,0.05,"O=C(O[C@H]1CN2CCC1CC2)N1CCc2ccccc2[C@@H]1c1ccccc1 [Amorphous product, solifenacin succinate]",poorer than that of the crystalline product,
,,,,"O=C(O[C@H]1CN2CCC1CC2)N1CCc2ccccc2[C@@H]1c1ccccc1 [solifenacin, (1R,3′R)-3′-quinuclidinyl 1-phenyl-1,2,3,4-tetrahydro-2-isoquinoline carboxylate]",,excellent selective antagonistic action
